From patent US20060276495A1, “Treatment methods of nasal congestion and nasal obstruction” (Schering Corporation, priority 2001, published 2006)

How the values were obtained:
[1] = tested on: patients with SAR; experiment: pooled randomized, parallel-group, double-blind, placebo-controlled studies of nasal congestion/stuffiness in patients with SAR; format: in vivo, human; conditions: for nasal congestion/stuffiness severity score (0-3), 14-day average change from baseline: baseline score 2.4
Procedure: The effects of desloratadine on nasal congestion/stuffiness are described by using data pooled from randomized, parallel-group, double-blind, placebo-controlled studies of desloratadine in patients with SAR. Patients (12-75 years; pooled n-659-662/group) with a ≧2-year history of seasonal allergic rhinitis and moderate-to-[…] severe symptoms present at the time of enrollment received desloratadine (5 mg or 7.5 mg) or placebo PO once a day for 14 days. The severity (0=none, 1=mild, 2=moderate, 3=severe) of congestion/stuffiness was assessed by patients for the study duration. The 14-day average change in symptom severity score from baseline was assessed. The mean symptom severity score for nasal congestion/stuffiness was 2.4 in each treatment group at baseline, indicating patients had moderate-to-severe nasal congestion before receiving treatment.

[2] = tested on: seasonal allergic rhinitis patients; experiment: four double-blinded, randomized clinical trials in seasonal allergic rhinitis patients; format: in vivo, human
Text: The clinical efficacy and safety of desloratadine has been documented in over 3,200 seasonal allergic rhinitis patients in four double-blinded, randomized clinical trials.
Efficacy endpoints in all the studies were Total Symptom Score, Total Nasal Symptom Score, Total Non-nasal Symptom Score, and Health Quality of Life (HQOL) analysis in efficacy trials. […] An important efficacy endpoint analyzed in the desloratadine studies is the AM NOW total symptom score. This parameter measures the total symptom relief by the patient after 24 hours before taking the next day dose.

For `Clc1ccc2c(c1)CCc1cccnc1C2=C1CCNCC1` [Desloratadine, desloratadine], the “nasal congestion/stuffiness severity score (0-3), 14-day average change from baseline” value ([1]; 5 mg PO once a day for 14 days, P=0.02 vs placebo) was “significantly decreased”, the total symptom severity ([1]; 5 mg or 7.5 mg PO once a day for 14 days, vs placebo) was “significantly decreased” and the “nasal congestion/stuffiness severity score (0-3), 14-day average change from baseline” value ([1]; 7.5 mg PO once a day for 14 days, P=0.01 vs placebo) was “significantly decreased”. The “total symptom scores (sum of individual scores for rhinorrhea, sneezing, congestion/stuffiness, nasal itching, itchy/burning eyes, tearing, ocular redness, itchy ears/palate)” value ([2]; 5 mg once daily, adult and adolescent SAR patients) was “significantly reduced”, the “reducing nasal symptoms vs placebo” value ([2]; 5 mg, p<0.01 vs placebo) was “significantly (p<0.01) more effective than placebo” and the “AM NOW total symptom score (symptom relief after 24 hours, before next day dose)” value ([2]; entire 5 mg to 20 mg dosage range, p<0.05) was “Statistically significant (p<0.05) reductions were maintained for the full 24 hour dosing interval”.
